Reference: patent publication US20130236960A1, “VITRIFICATED STORAGE SOLUTION FOR CELLS” (priority 2010, published 2013)
“Also recorded” adds a separate entry of the source.

Columns and labels:
[1] = Vitrification ability of cell membrane permeable substances by rapid cooling with liquid nitrogen; format: physicochemical; details: 30% solution in PBS
Procedure: The 10 to 50% solutions of 6 dials (EG, PG, BG, IPG, DPG and PEG) and of DMSO were prepared and confirmed to be vitrified by rapid cooling with liquid nitrogen. Specifically, respective cell membrane permeable substances are dissolved in PBS to concentrations of 10, 20, 30, 40 and 50%, and the solution was stained with a small amount of phenol red in order to readily judge the vitrification. The solution thus prepared was divided into 200 μl portions in cryo-tubes, which were dipped into liquid nitrogen for rapid cooling. The tubes were dipped into liquid nitrogen for 5 minutes or more to stabilize the temperature before observation of each tube.

[2] = tested on: Common marmoset (CM) ES cells; experiment: Cytotoxicity and influence on differentiation with common marmoset ES cells; format: cell-based; details: 2% in culture medium for CMES; for nature of the colony morphology: after 3 days
Procedure: Specifically, the experiment was conducted as follow • CMES cells were cultured with reference to “Establishment of novel embryonic stem cell lines derived from the common marmoset” ([…], Izawa […], Asano 5, Nakatsuji N, Okano H, Tani K. Stem Cells. 2005 October; 23(9):1304-13). • CMES cells were seeded in a φ35 mm dish to which feeder cells had preliminarily been adhered, and the cell membrane permeable substance was added in an amount corresponding to 2% of the amount of the culture medium. • After 3 days, microscopic observation was conducted, and the presence of the growth suppression and differentiation promotion on CMES cells was examined.

[3] = tested on: Mouse ES cell line strain D3; experiment: Vitrification preservation efficiency with mouse ES cells (trypan blue survival rate, colony observation); format: cell-based; details: for colonies after vitrification, melting and culture: cell membrane permeable substance used alone, 40%, 60 seconds, 3 days culture
Procedure: The mouse ES cells after vitrification and melting were seeded, and the state of the cells after culture was confirmed by microscopic observation.
(§1) Specifically, the experiment was conducted as follows: • Mouse ES cells were cultured according to the ordinary method. • The mouse ES cells recovered were counted, divided into 10^6 cell portions in 1.5 ml tubes, and centrifuged at 1500 rpm for 5 minutes. • The supernatant was removed, and the cells were suspended in 200 μl of the vitrification medium. • After suspension, DAP213 and the test fluid were dipped into liquid nitrogen after 15 seconds and 60 seconds, respectively, for vitrification. • The tubes were left standing for 5 minutes or more to stabilize the temperature. • The tubes were taken out liquid nitrogen, and the cells were diluted with 1800 μl of the culture medium preliminarily heated to 37° C. and rapidly suspended for melting. • A portion of the suspension was sampled for counting the cells. • On counting the cells, the life or death of cells was judged from the index of the selective excretive ability of the viable cells to trypan blue and the survival rate was calculated. • The remaining cells were seeded in a 24 well plate, and the state after 3 days was confirmed by microscopic observation.
The 40% solution of each cell membrane permeable substance in PBS was prepared, and the mouse ES cells was suspended in the solution, left standing for 60 seconds, and dipped into liquid nitrogen for vitrification.
as §1, with “Specifically,” for “Specifically, the”, “out from” for “out”
as §1, with “Specifically,” for “Specifically, the”, “out from” for “out”, “calculated.” for “calculated. • The remaining cells were seeded in a 24 well plate, and the state after 3 days was confirmed by microscopic observation.”

[4] = tested on: Common marmoset ES cell line strain CMES40; experiment: Preservation effect on common marmoset ES cells (take rate, ALP-positive colonies); format: cell-based; details: cell membrane permeable substance used alone, with trehalose, 60 seconds
From the text: According to the present invention, it is possible to provide a vitrification medium which is excellent in operability and safety and can efficiently preserve cells, particularly primate ES/iPS cells. Specifically, the take rate of ca. 60% could be obtained even if simian ES cells were suspended in the vitrification medium of the present invention and after 60 seconds the suspension was poured into liquid nitrogen (as described hereinafter, the “take rate” in place of the “survival rate” is used with respect to the preservation efficiency of simian ES cells. In this place, the take rate is calculated on the basis of the number of undifferentiated colonies having taken after three or four days from the seeding of the cells without vitrification as 100). Hitherto, when DAP213, which has been most commonly used, was used, it was important to pour the cell suspension into liquid nitrogen within 15 seconds after suspending the cells in DAP213 for avoiding the lowering of the survival rate. Due to this fact, skillfulness was required for operations and wide dispersion in results was apprehended to occur depending on the technical skills of operators, so that a stable result was not always obtained. […]

[5] = Examination of vitrification promoting substances in 30% DMSO/PBS; format: physicochemical; details: 0.3 M added to 30% DMSO solution
Procedure: Specifically, the experiment was conducted as follows: • As the vitrification promoting substance, the following saccharides were examined: glucose, sucrose, maltose, fructose, trehalose, raffinose, erythritol, xylitol, sorbitol and mannitol. • The vitrification promoting substance was dissolved in 30% DMSO/PBS to a concentration of 0.3 M and 0.6 M respectively. • The solution thus prepared was divided into 200 μl portions in cryo-tubes, which were dipped into liquid nitrogen for rapid cooling. The tubes were dipped into liquid nitrogen for 5 minutes or more to stabilize the temperature before observation of each tube.

[6] = Solubility at low temperature; format: physicochemical
[7] = Examination of ice crystal growth inhibitor: time for melting the vitrified storage solution; format: physicochemical; details: for time required for the once vitrificated storage solution to be melted completely: 40% EG storage solution with the additive
Procedure: Examination of the ice crystal growth inhibitor was conducted by comparing the times required for melting the crystallized vitrificated storage solutions. That is, when crystal lumps having the same volume are melted, a polycrystalline substance having a larger total surface area is melted more quickly. It is believed that when the growth of ice crystals is suppressed on the phase transition to crystalline state, the melting time is shortened probably due to the formation of many minute ice crystals.
Specifically, experiment was conducted according to the following procedure. • The test fluid prepared was dispensed in a portion of 200 μl into 1.5 ml microtubes. • Dewar vessel was charged with liquid nitrogen, and a timer was provided. • The microtube was picked up with tweezers and dipped into liquid nitrogen for 40 seconds for vitrification. • The microtube was pulled out from liquid nitrogen, and the time required for complete disappearance of ice within the tube was measured.

## OCCCCO [BG, Butylene glycol]
[1]
  vitrification by rapid cooling with liquid nitrogen: vitrified

## C[S+](C)[O-] [DMSO, Dimethyl sulfoxide]
[2]
  differentiation promoting effect on the CMES cells: no differentiation promoting effect
  nature of the colony morphology: good
[3]
  colonies after vitrification, melting and culture: least number of colonies
[1]
  vitrification by rapid cooling with liquid nitrogen: no vitrification occurs

## CC(O)COC(C)CO (centres unmarked) [DPG, Diprepylene glycol]
[1]
  vitrification by rapid cooling with liquid nitrogen: vitrified

## OCCO [EG, Ethylene glycol]
[2]
  differentiation promoting effect on the CMES cells: no differentiation promoting effect
  nature of the colony morphology: good
[4]
  preservation efficiency: high preservation efficiency
[3]; 40% solution in PBS, left standing for 60 seconds before vitrification
  survival rate after melting: substantially lowered as compared with DMSO+PG; also recorded: second highest
[3]
  colonies after vitrification, melting and culture: biggest colony

## CC(C)(O)CCO [IPG, Isoprene glycol]
[1]
  vitrification by rapid cooling with liquid nitrogen: vitrified

## CC(O)CO (centres unmarked) [PG, Propylene glycol]
[2]
  differentiation promoting effect on the CMES cells: no differentiation promoting effect
  nature of the colony morphology: good
[3]
  colonies after vitrification, melting and culture: secondly
[1]
  vitrification by rapid cooling with liquid nitrogen: vitrified

## CC(N)=O [acetamide, Acetamide]
[3]; DAP213 versus DP23, vitrification after 60 seconds
  survival rate, effect of acetamide: reduced
[3]; DAP213 versus DP23, vitrification within 15 seconds
  improvement of the survival rate due to acetamide: not recognized

## OC[C@H]1O[C@H](OC[C@H]2O[C@H](O[C@]3(CO)O[C@H](CO)[C@@H](O)[C@@H]3O)[C@H](O)[C@@H](O)[C@@H]2O)[C@H](O)[C@@H](O)[C@H]1O [raffinose, D-(+)-Raffinose-pentahydrate]
[5]
  vitrification by rapid cooling in liquid nitrogen: vitrified
[6]
  solubility: low solubility

## OC[C@H]1O[C@@](CO)(O[C@H]2O[C@H](CO)[C@@H](O)[C@H](O)[C@H]2O)[C@@H](O)[C@@H]1O [sucrose, Sucrose, reference compound]
[7]
  time required for the once vitrificated storage solution to be melted completely: no reduction of melting time

## OC[C@H]1O[C@H](O[C@H]2O[C@H](CO)[C@@H](O)[C@H](O)[C@H]2O)[C@H](O)[C@@H](O)[C@@H]1O [trehalose, D-(+)-Trehalose-dihydrate]
[7]
  time required for the once vitrificated storage solution to be melted completely: no reduction of melting time
[5]
  vitrification by rapid cooling in liquid nitrogen: vitrified

## Bovine serum albumin [reference compound]
[7]
  time required for the once vitrificated storage solution to be melted completely: an effect similar to that of sericin, its activity remained unsatisfactory

## sericin
[7]
  time required for the once vitrificated storage solution to be melted completely: shortened
[7]; concluded from melting time
  growth of ice crystals: suppresses the growth of ice crystals
